Legend:
[1] = Stability test of Crystalline form III of sulfate (light, dark, 60° C., 40° C./75% RH); format: physicochemical
Protocol: The chemical and physical stability of Crystalline form III were studied under conditions of light, light-shielding, 60° C. and 40° C./75% RH for 1 month. […] In the light stability test, the crystalline form was stored in a light stability test chamber without a lid and thus exposed to a total illuminance of 1.2 million lux-hr, and a sample vial completely covered with an aluminum foil was regarded as a light-shielded control (Dark control). Appearance by visual observation for 2 weeks, 1 month, 2 months and 3 months was recorded, and purity assessment and XPRD data collection for residual solid contents were performed.

[2] = Persistence of Crystalline form VIII under nitrogen and on exposure to air (XRPD); format: physicochemical
Protocol: A novel crystalline form was found by heating Crystalline form IV to remove water and maintaining the same for 10 minutes and named Crystalline form VIII.

[3] = Oral administration pharmacokinetic test using mice; conditions: mice, oral; for AUClast / Cmax / Tmax / t½: 10 mg/kg; for Pharmacokinetic test, t½: summary Table 9
[4] = Physicochemical stability test of free form and 5 salts (60° C., 40° C./75% humidity, light); conditions: for Final purity: HPLC; for Chemical stability (purity change %/1 w), 40° C./75% RH / Chemical stability (purity change %/1 w), 60° C. / Chemical stability (purity change %/1 w), Light stability: summary Table 9; for Sensitivity to heat, humidity and light conditions (in words): 40° C./75% humidity
Protocol: In the case of a light stability test, the vial was stored in a light stability test chamber while being not closed with a lid, and exposed to a total illuminance of 1.2 million lux-hr. A vial light-shielded with aluminum foil was used as an experimental control (Dark control). For stability assessment, state assessment by visual observation, purity assessment using HPLC, and crystalline form assessment using XRPD were conducted, and results thereof are shown in Table 7. […] In FIGS. 19 to 30, “Light” represents light irradiation condition results.

[5] = Dark control (light-shielded vial)

O=S(=O)(O)O.O=S1(=O)CCN(Cc2cc(NC3CCOCC3)c3[nH]c(-c4ccccc4)cc3c2)CC1
Area (%), impurity peak 3 (RRT 0.67) ([1]; 1.2 million lux-hr): 0.226% | Area (%), impurity peak 10 (RRT 1.24) ([1]; 1.2 million lux-hr): 0.221% | Area (%), impurity peak 12 (RRT 1.42) ([1]; 1.2 million lux-hr): 0.073% | Area of Sulfate (%), peak 7 (RRT 1.00, main peak) ([1]; 1.2 million lux-hr): 99.382% | Area (%), impurity peak 2 (RRT 0.63) ([1]; 40° C./75% RH, 1 M): 0.183% | Area (%), impurity peak 4 (RRT 0.68) ([1]; 40° C./75% RH, 1 M): 0.061% | Area (%), impurity peak 6 (RRT 0.91) ([1]; 40° C./75% RH, 1 M): 0.102% | Area (%), impurity peak 9 (RRT 1.12) ([1]; 40° C./75% RH, 1 M): 0.518% | Area (%), impurity peak 11 (RRT 1.32) ([1]; 40° C./75% RH, 1 M): 0.149% | Area of Sulfate (%), peak 7 (RRT 1.00, main peak) ([1]; 40° C./75% RH, 1 M): 98.711% | Area (%), impurity peak 1 (RRT 0.50) ([1]; 40° C./75% RH, 2 W): 0.069% | Area (%), impurity peak 3 (RRT 0.67) ([1]; 40° C./75% RH, 2 W): 0.226% | Area (%), impurity peak 10 (RRT 1.24) ([1]; 40° C./75% RH, 2 W): 0.321% | Area (%), impurity peak 12 (RRT 1.42) ([1]; 40° C./75% RH, 2 W): 0.084% | Area of Sulfate (%), peak 7 (RRT 1.00, main peak) ([1]; 40° C./75% RH, 2 W): 98.769% | Area (%), impurity peak 2 (RRT 0.63) ([1]; 60° C., 1 M): 0.168% | Area (%), impurity peak 4 (RRT 0.68) ([1]; 60° C., 1 M): 0.056% | Area (%), impurity peak 9 (RRT 1.12) ([1]; 60° C., 1 M): 0.325% | Area (%), impurity peak 11 (RRT 1.32) ([1]; 60° C., 1 M): 0.088% | Area of Sulfate (%), peak 7 (RRT 1.00, main peak) ([1]; 60° C., 1 M): 99.247% | Area (%), impurity peak 3 (RRT 0.67) ([1]; 60° C., 2 W): 0.231% | Area (%), impurity peak 5 (RRT 0.82) ([1]; 60° C., 2 W): 0.052% | Area (%), impurity peak 8 (RRT 1.11) ([1]; 60° C., 2 W): 0.114% | Area (%), impurity peak 10 (RRT 1.24) ([1]; 60° C., 2 W): 0.211% | Area (%), impurity peak 12 (RRT 1.42) ([1]; 60° C., 2 W): 0.054% | Area of Sulfate (%), peak 7 (RRT 1.00, main peak) ([1]; 60° C., 2 W): 99.237% | Area (%), impurity peak 3 (RRT 0.67) ([1]; Dark control): 0.209% | Area (%), impurity peak 8 (RRT 1.11) ([1]; Dark control): 0.069% | Area (%), impurity peak 12 (RRT 1.42) ([1]; Dark control): 0.078% | Area of Sulfate (%), peak 7 (RRT 1.00, main peak) ([1]; Dark control): 99.326% | Area (%), impurity peak 3 (RRT 0.67) ([1]; Initial): 0.204% | Area (%), impurity peak 8 (RRT 1.11) ([1]; Initial): 0.069% | Area (%), impurity peak 10 (RRT 1.24) ([1]; Initial): 0.215% | Area (%), impurity peak 12 (RRT 1.42) ([1]; Initial): 0.08% | Area of Sulfate (%), peak 7 (RRT 1.00, main peak) ([1]; Initial): 99.319%

O=S1(=O)CCN(Cc2cc(NC3CCOCC3)c3[nH]c(-c4ccccc4)cc3c2)CC1 [Crystalline form VIII]
Time until the crystalline form disappeared ([2]; exposed to air, changes to Crystalline form IV): ≤ 1 h | Persistence of the crystalline form (in words) ([2]; nitrogen filling protection after cooling to 25° C.): maintained upon nitrogen filling protection after cooling to 25 °C

Cl.O=S1(=O)CCN(Cc2cc(NC3CCOCC3)c3[nH]c(-c4ccccc4)cc3c2)CC1 [Hydrochloride]
AUClast [3]: 12261.43 ng·h/mL | Cmax [3]: 2381.1 ng/mL | Tmax [3]: 2 h | t½ [3]: 3.0 h | Pharmacokinetic test, t½ [3]: 3 h | Assay ([4]; 1.2 million lux-hr): 108.65% | Purity change ([4]; 1.2 million lux-hr): 0% | XRPD patterns ([4]; 1.2 million lux-hr): Pattern 1-I | Final purity ([4]; 1.2 million lux-hr): 99.95% | Appearance ([4]; 40° C./75% RH, 1 w): White powder | Assay ([4]; 40° C./75% RH, 1 w): 109.18% | Purity change ([4]; 40° C./75% RH, 1 w): −0.55% | XRPD patterns ([4]; 40° C./75% RH, 1 w): Pattern 1-I | Final purity ([4]; 40° C./75% RH, 1 w): 99.40% | Chemical stability (purity change %/1 w), 40° C./75% RH ([4]; 40° C./75% RH, 1 w): −0.05% | Appearance ([4]; 60° C., 1 w): White powder | Assay ([4]; 60° C., 1 w): 110.29% | Purity change ([4]; 60° C., 1 w): +0.05% | XRPD patterns ([4]; 60° C., 1 w): Pattern 1-I | Final purity ([4]; 60° C., 1 w): 100.0% | Chemical stability (purity change %/1 w), 60° C. ([4]; 60° C., 1 w): 0.18% | Sensitivity to heat, humidity and light conditions (in words) ([4]; 60° C., 1.2 million lux-hr): sensitive under a humidity condition | Assay ([4]; Dark control): 108.99% | Purity change ([4]; Dark control): +0.05% | XRPD patterns ([4]; Dark control): Pattern 1-I | Appearance [4, 5]: White powder | Final purity ([4]; Dark control): 100.0% | Chemical stability (purity change %/1 w), Light stability [4]: 0%

O=C(O)/C=C\C(=O)O.O=S1(=O)CCN(Cc2cc(NC3CCOCC3)c3[nH]c(-c4ccccc4)cc3c2)CC1 [Maleate]
AUClast [3]: 15780.45 ng·h/mL | Cmax [3]: 3115.9 ng/mL | Tmax [3]: 0.5 h | t½ [3]: 2.8 h | Pharmacokinetic test, t½ [3]: 3 h | Assay ([4]; 1.2 million lux-hr): 109.56% | Purity change ([4]; 1.2 million lux-hr): −0.17% | XRPD patterns ([4]; 1.2 million lux-hr): Pattern 7-I | Final purity ([4]; 1.2 million lux-hr): 96.86% | Appearance ([4]; 40° C./75% RH, 1 w): Yellow powder | Assay ([4]; 40° C./75% RH, 1 w): 108.85% | Purity change ([4]; 40° C./75% RH, 1 w): −0.77% | XRPD patterns ([4]; 40° C./75% RH, 1 w): Pattern 7-I | Final purity ([4]; 40° C./75% RH, 1 w): 96.26% | Chemical stability (purity change %/1 w), 40° C./75% RH ([4]; 40° C./75% RH, 1 w): −0.77% | Appearance ([4]; 60° C., 1 w): Yellow powder | Assay ([4]; 60° C., 1 w): 110.00% | Purity change ([4]; 60° C., 1 w): −0.44% | XRPD patterns ([4]; 60° C., 1 w): Pattern 7-I | Final purity ([4]; 60° C., 1 w): 96.59% | Chemical stability (purity change %/1 w), 60° C. ([4]; 60° C., 1 w): −0.44% | Sensitivity to heat, humidity and light conditions (in words) ([4]; 60° C., 1.2 million lux-hr): sensitive under all conditions including heat, humidity and light irradiation conditions | Assay ([4]; Dark control): 109.66% | Purity change ([4]; Dark control): +0.01% | XRPD patterns ([4]; Dark control): Pattern 7-I | Appearance [4, 5]: Yellow powder | Final purity ([4]; Dark control): 97.04% | Chemical stability (purity change %/1 w), Light stability [4]: −0.17%

CS(=O)(=O)O.O=S1(=O)CCN(Cc2cc(NC3CCOCC3)c3[nH]c(-c4ccccc4)cc3c2)CC1 [Mesylate]
AUClast [3]: 10119.7 ng·h/mL | Cmax [3]: 2595.2 ng/mL | Tmax [3]: 0.5 h | t½ [3]: 2.3 h | Pharmacokinetic test, t½ [3]: 2 h | Assay ([4]; 1.2 million lux-hr): 102.69% | Purity change ([4]; 1.2 million lux-hr): −0.82% | XRPD patterns ([4]; 1.2 million lux-hr): Pattern 4-I | Final purity ([4]; 1.2 million lux-hr): 99.18% | Purity decrease ([4]; 40° C. RH for 1 week): ≥ 3% | Appearance ([4]; 40° C./75% RH, 1 w): White powder | Assay ([4]; 40° C./75% RH, 1 w): 101.35% | Purity change ([4]; 40° C./75% RH, 1 w): −3.29% | XRPD patterns ([4]; 40° C./75% RH, 1 w): Pattern 4-I | Final purity ([4]; 40° C./75% RH, 1 w): 96.71% | Chemical stability (purity change %/1 w), 40° C./75% RH ([4]; 40° C./75% RH, 1 w): −3.29% | Appearance ([4]; 60° C., 1 w): White powder | Assay ([4]; 60° C., 1 w): 107.36% | Purity change ([4]; 60° C., 1 w): 0% | XRPD patterns ([4]; 60° C., 1 w): Pattern 4-I | Final purity ([4]; 60° C., 1 w): 100.0% | Chemical stability (purity change %/1 w), 60° C. ([4]; 60° C., 1 w): 0% | Sensitivity to heat, humidity and light conditions (in words) ([4]; 60° C., 1.2 million lux-hr): sensitive under humidity and light conditions | Assay ([4]; Dark control): 103.03% | Purity change ([4]; Dark control): 0% | XRPD patterns ([4]; Dark control): Pattern 4-I | Appearance [4, 5]: White powder | Final purity ([4]; Dark control): 100.0% | Chemical stability (purity change %/1 w), Light stability [4]: −0.82%

Cc1ccc(S(=O)(=O)O)cc1.O=S1(=O)CCN(Cc2cc(NC3CCOCC3)c3[nH]c(-c4ccccc4)cc3c2)CC1 [Tosylate]
AUClast [3]: 18850.98 ng·h/mL | Cmax [3]: 3151.3 ng/mL | Tmax [3]: 0.5 h | t½ [3]: 2.8 h | Pharmacokinetic test, t½ [3]: 3 h | Assay ([4]; 1.2 million lux-hr): 105.78% | Purity change ([4]; 1.2 million lux-hr): −0.24% | XRPD patterns ([4]; 1.2 million lux-hr): Pattern 6-I | Final purity ([4]; 1.2 million lux-hr): 98.77% | Appearance ([4]; 40° C./75% RH, 1 w): White powder | Assay ([4]; 40° C./75% RH, 1 w): 107.73% | Purity change ([4]; 40° C./75% RH, 1 w): −0.01% | XRPD patterns ([4]; 40° C./75% RH, 1 w): Pattern 6-I | Final purity ([4]; 40° C./75% RH, 1 w): 99.00% | Chemical stability (purity change %/1 w), 40° C./75% RH ([4]; 40° C./75% RH, 1 w): −0.01% | Appearance ([4]; 60° C., 1 w): White powder | Assay ([4]; 60° C., 1 w): 108.33% | Purity change ([4]; 60° C., 1 w): −0.05% | XRPD patterns ([4]; 60° C., 1 w): Pattern 6-I | Final purity ([4]; 60° C., 1 w): 98.96% | Chemical stability (purity change %/1 w), 60° C. ([4]; 60° C., 1 w): −0.05% | Sensitivity to heat, humidity and light conditions (in words) ([4]; 60° C., 1.2 million lux-hr): sensitive to light | Assay ([4]; Dark control): 108.98% | Purity change ([4]; Dark control): −0.03% | XRPD patterns ([4]; Dark control): Pattern 6-I | Appearance [4, 5]: White powder | Final purity ([4]; Dark control): 98.98% | Chemical stability (purity change %/1 w), Light stability [4]: −0.24%

From patent US20240199598A1 (MITOIMMUNE THERAPEUTICS INC., priority 2021, published 2024)
